Source: US12486280B2, “CDK inhibitors and uses thereof” (California Institute of Technology, priority 2018, dated 2025)
In brackets after ≈: the same amount, converted by molar mass. Where two headings read alike, the source gives them in different places.

Tests used:
[1] = Measurement of Compound Metabolic Stability in hepatocytes
Experimental: The metabolic stability of compounds was determined in hepatocytes from mice and rats. Compounds were diluted to 5 μM in Williams' Medium E from 10 mM stock solutions. 10 μL of each compound was aliquoted into a well of a 96-well plate and reactions were started by aliquoting 40 μL of a 625,000 cells/mL suspension into each well. The plate was incubated at 37° C. with 5% CO2. At each corresponding time point, the reaction was stopped by quenching with ACN containing internal standards (IS) at a 1:3. Plates were shaken at 500 rpm for 10 min, and then centrifuged at 3,220×g for 20 minutes. Supernatants were transferred to another 96-well plate containing a dilution solution. Supernatants were analyzed by LC/MS/MS. Compound half-life was estimated using the following equation:

CDK4 = CDK4 (Homo sapiens (Human), UniProt P11802); experiment: Cdk4 and 6 Enzymatic Inhibition Assay (radiometric 33PanQinase, Ki determination); assay type: biochemical
Summary of the method: (§1)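 Compounds tested at ten concentrations spanning 2×10^−6 to 6×10^−11 M (final DMSO 1%). Kinase and substrate reacted with [γ-33P]-ATP in HEPES-NaOH pH 7.5 containing Mg2+/Mn2+, orthovanadate and DTT for 60 min at 30° C; incorporated 33Pi measured by microplate scintillation counting.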

CDK6 = CDK6 (Homo sapiens (Human), UniProt Q00534); experiment: as above; assay type: biochemical
Summary of the method: as §1

[2] = Caco-2 Assay (Papp A to B); settings: human, Caco-2, pH 7.4
Experimental: The degree of bi-directional human intestinal permeability for compounds was estimated using a Caco-2 cell permeability assay. Caco-2 cells were seeded onto polyethylene membranes in 96-well plates. The growth medium was refreshed every 4 to 5 days until cells formed a confluent cell monolayer. HBSS with 10 mM HEPES at pH 7.4 was used as the transport buffer. Compounds were tested at 2 μM bi-directionally in duplicate. Digoxin, nadolol and metoprolol were included as standards. Digoxin was tested at 10 μM bi-directionally in duplicate, while nadolol and metoprolol were tested at 2 μM in the A to B direction in duplicate. The final DMSO concentration was adjusted to less than 1% for all experiments. The plate was incubated for 2 hours in a CO2 incubator at 37° C., with 5% CO2 at saturated humidity. After incubation, all wells were mixed with acetonitrile containing an internal standard, and the plate was centrifuged at 4,000 rpm for 10 minutes. 100 μL supernatant was collected from each well and diluted with 100 μL distilled water for LC/MS/MS analysis. Concentrations of test and control compounds in starting solution, donor solution, and receiver solution were quantified by LC/MS/MS, using peak area ratio of analyte/internal standard. The apparent permeability coefficient Papp (cm/s) was calculated using the equation: Papp=(dCr/dt)×Vr/(A×C0) Where dCr/dt is the cumulative concentration of compound in the receiver chamber as a function of time (μM/s); Vr is the solution volume in the receiver chamber (0.075 mL on the apical side, 0.25 mL on the basolateral side); A is the surface area for the transport, which is 0.0804 cm^2 for the area of the monolayer; C0 is the initial concentration in the donor chamber (μM).

[3] = tested on: CYP isozymes (IC50s averaged over the isozymes); experiment: CYP Enzymatic Inhibition Assay in human liver microsomes
hERG potassium channels = hERG potassium channels (Homo sapiens (Human), UniProt Q12809); experiment: hERG Inhibition Assay (QPatch automated patch clamp, CHO cells); settings: percent of control current
Experimental: Effects of compounds on hERG potassium channel conductance was assessed using the automated patch clamp method QPatch^HTX. Compounds were prepared at 10 mM stocks. CHO cells stably expressing hERG potassium channels were used for this assay. Cells were cultured in a humidified and air-controlled 5% CO2) incubator at 37° C. Compound stocks and the positive control Amitriptyline were dissolved in 100% DMSO to make various solution concentrations. These solutions were further diluted into extracellular solution to achieve final concentrations for testing. The final DMSO concentration in extracellular solution was 0.30%. The hERG QPatch^HTX assay was conducted at room temperature.
The following voltage command protocol was used: • From the holding potential of −80 mV, the voltage was first stepped to −50 mV for 80 ms for leak subtraction, and then stepped to +20 mV for 4,800 ms to open hERG channels. • After which, the voltage was stepped back down to −50 mV for 5,000 ms, causing a “rebound” or tail current, which was measured and collected for data analysis. • Finally, the voltage was stepped back to the holding potential of −80 mV for 3,100 ms.
For each experiment, three additions of 5 μL of the vehicle were applied, followed by 30 runs of the voltage command protocol for a baseline period. Then, the ascending doses of each compound were added with three repetitions (5 μL of compound each time).

[4] = tested on: drug-sensitive cell lines of Table 2 (EFM-19, MDA-MB-453, T-47D, ZR-75-1, NCI-H441, OVTOKO, NCI-H1838); experiment: Cell Line Growth Retardation Assay, sensitive cohort; assay type: cell-based, human; settings: for IC50: Homo sapiens, geometric mean over sensitive cohort, 6 days growth, read-out: AvgSensIC50; for Ther Window: average IC50 drug-resistant group divided by average IC50 drug-sensitive group
Summary of the method: (§2)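 Growth over 6 days of compound exposure (0.0032–10 μM, five-fold steps) was scored by imaging cell counts at days 0 and 6, comparing population doublings with vehicle. Per-line IC50s from dose-response fits were averaged geometrically per cohort; therapeutic window is resistant/sensitive ratio.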

[5] = tested on: drug-resistant cell lines of Table 2 (NCI-H1437, OV207, HCC1806, NCI-H2172); experiment: Cell Line Growth Retardation Assay, resistant cohort; assay type: cell-based, human; settings: Homo sapiens, […], geometric mean over resistant cohort; 6 days growth; read-out: AvgResIC50
Summary of the method: as §2

[6] = Compound Solubility Assay (kinetic solubility); assay type: physicochemical; settings: kinetic from dmso stock
Experimental: The relative kinetic solubility of each compound was determined at both low (1.2) and neutral (7.4) pH. Compounds were prepared at 10 mM stocks. […] Compounds were allowed to shake at room temperature for 24 hours in 50 mM phosphate buffer pH 7.4, or in SGF buffer pH 1.2 at 37° C. for 24 hours.

[7] = 50 mM phosphate buffer, pH 7.4, aqueous buffer, read-out: KS7
[8] = simulated gastric fluid, kinetic solubility, SGF buffer pH 1.2, 37° C., 24 hours, read-out: KS1

Sequence of hERG potassium channels (Q12809 whole entry): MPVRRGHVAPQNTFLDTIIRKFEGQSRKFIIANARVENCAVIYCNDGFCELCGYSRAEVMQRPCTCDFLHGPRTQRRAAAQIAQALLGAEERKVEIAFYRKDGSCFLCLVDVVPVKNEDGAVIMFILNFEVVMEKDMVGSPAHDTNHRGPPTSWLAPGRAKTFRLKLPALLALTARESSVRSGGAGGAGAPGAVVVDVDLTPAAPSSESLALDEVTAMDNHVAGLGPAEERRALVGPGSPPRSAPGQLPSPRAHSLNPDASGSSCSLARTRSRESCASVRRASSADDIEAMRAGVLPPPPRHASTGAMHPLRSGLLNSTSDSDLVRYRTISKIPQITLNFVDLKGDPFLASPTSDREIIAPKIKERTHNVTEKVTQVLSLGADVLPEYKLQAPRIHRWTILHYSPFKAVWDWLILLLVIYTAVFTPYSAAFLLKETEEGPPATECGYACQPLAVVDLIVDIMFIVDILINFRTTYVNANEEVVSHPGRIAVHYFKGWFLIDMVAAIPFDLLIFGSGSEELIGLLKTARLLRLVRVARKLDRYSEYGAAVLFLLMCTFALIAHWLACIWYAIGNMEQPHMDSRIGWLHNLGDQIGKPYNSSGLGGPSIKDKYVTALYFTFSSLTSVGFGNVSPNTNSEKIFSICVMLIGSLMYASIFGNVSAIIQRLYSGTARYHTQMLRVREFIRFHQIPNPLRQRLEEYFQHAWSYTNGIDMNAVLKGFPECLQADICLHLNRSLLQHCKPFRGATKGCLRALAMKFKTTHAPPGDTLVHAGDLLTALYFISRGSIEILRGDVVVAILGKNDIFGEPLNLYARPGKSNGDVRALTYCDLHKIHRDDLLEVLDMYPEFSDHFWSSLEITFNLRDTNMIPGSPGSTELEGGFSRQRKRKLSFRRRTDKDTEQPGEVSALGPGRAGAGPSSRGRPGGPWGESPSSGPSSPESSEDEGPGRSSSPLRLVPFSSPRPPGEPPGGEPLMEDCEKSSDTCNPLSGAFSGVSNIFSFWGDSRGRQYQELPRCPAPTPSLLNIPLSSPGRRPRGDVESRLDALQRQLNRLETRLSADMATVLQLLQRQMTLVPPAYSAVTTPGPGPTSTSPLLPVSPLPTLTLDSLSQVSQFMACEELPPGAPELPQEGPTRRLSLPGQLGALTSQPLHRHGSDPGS
Sequence of CDK6 (Q00534 whole entry): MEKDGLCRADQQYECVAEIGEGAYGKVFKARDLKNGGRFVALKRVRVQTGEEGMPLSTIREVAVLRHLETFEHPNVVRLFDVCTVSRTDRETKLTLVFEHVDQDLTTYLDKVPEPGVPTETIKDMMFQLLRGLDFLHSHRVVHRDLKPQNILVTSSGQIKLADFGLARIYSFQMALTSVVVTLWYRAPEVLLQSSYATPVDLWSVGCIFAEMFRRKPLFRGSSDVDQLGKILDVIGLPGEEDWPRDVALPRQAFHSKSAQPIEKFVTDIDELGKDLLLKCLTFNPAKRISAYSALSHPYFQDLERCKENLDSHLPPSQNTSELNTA
Sequence of CDK6 (P24385 whole entry partner): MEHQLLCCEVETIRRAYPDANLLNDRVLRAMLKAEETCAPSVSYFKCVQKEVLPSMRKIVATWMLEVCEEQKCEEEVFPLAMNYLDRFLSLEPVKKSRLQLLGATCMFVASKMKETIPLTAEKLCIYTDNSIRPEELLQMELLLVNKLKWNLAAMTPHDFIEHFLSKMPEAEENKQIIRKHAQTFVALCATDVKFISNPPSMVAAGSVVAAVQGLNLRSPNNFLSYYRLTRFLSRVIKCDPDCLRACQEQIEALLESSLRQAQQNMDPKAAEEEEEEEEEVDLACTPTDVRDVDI
Sequence of CDK4 (P11802 whole entry): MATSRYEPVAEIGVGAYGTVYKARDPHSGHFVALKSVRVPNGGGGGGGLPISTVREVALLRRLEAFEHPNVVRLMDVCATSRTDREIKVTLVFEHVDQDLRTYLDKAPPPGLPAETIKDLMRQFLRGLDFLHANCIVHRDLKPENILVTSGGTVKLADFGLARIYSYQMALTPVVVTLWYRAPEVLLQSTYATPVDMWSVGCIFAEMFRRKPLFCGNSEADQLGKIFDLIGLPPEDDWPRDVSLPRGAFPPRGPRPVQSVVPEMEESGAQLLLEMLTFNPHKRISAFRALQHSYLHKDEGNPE
Sequence of CDK4 (P24385 whole entry partner): as the sequence (P24385 whole entry partner) above

| Compound | half-life at 1 μM [1] [min] | Ki (CDK4) [nM] | Ki (CDK6) [nM] | Papp A→B at 2 h, 2 μM [2] [×10⁻⁶ cm/s] | IC50 at 10 min [3] [µM] | IC50 [4] [nM] | IC50 [5] [nM] | solubility kinetic at 24 h [6, 7] [µM] | solubility kinetic at 24 h [6, 8] [µM] | hERG (hERG potassium channels) [%] | Ther Window [4] |
| --- | --- | --- | --- | --- | --- | --- | --- | --- | --- | --- | --- |
| COC(=O)N1CC[C@]2(CN(Cc3ccc(Nc4ncc(F)c(-c5cc(F)c6nc(C)n(C(C)C)c6c5)n4)nc3)CCO2)C1 [Compound A30, methyl (S)-9-((6-((5-fluoro-4-(4-fluoro-1-isopropyl-2-methyl-1H-benzo[d]imidazol-6-yl)pyrimidin-2-yl)amino)pyridin-3-yl)methyl)-6-oxa-2,9-diazaspiro[4.5]decane-2-carboxylate] | 4.99 | 2.95 | 16.5 | 4.6 | 30 | 110 | 990 | 2.52 (≈ 1.49 µg/mL) | 200 (≈ 119 µg/mL) | 15.21 | 9.41 |
| Cc1nc2c(F)cc(-c3nc(Nc4ccc(CN5CCO[C@@]6(CCN(S(C)(=O)=O)C6)C5)cn4)ncc3F)cc2n1C(C)C [Compound A31, (S)-5-fluoro-4-(4-fluoro-1-isopropyl-2-methyl-1H-benzo[d]imidazol-6-yl)-N-(5-((2-(methylsulfonyl)-6-oxa-2,9-diazaspiro[4.5]decan-9-yl)methyl)pyridin-2-yl)pyrimidin-2-amine] | 5.65 | 1.71 | 10.2 | 0.85 | 12.8 | 140 | 960 | 3.09 (≈ 1.89 µg/mL) | 200 (≈ 123 µg/mL) | 21.67 | 6.72 |
| Cc1nc2c(F)cc(-c3nc(Nc4ccc(CN5CCO[C@]6(CCN(S(C)(=O)=O)C6)C5)cn4)ncc3F)cc2n1C(C)C [Compound A32] | 4.24 | 3.07 | 17.4 | 1.08 | 31.5 | 160 | 1000 | 1.6 (≈ 0.98 µg/mL) | 200 (≈ 123 µg/mL) | 14.35 | 6.24 |
| COC(=O)N1CC[C@@]2(CN(Cc3ccc(Nc4ncc(F)c(-c5cc(F)c6nc(C)n(C(C)C)c6c5)n4)nc3)CCO2)C1 [Compound A33] | 4.73 | 3.42 | 20.1 | 3.94 | 18.7 | 150 | 1000 | 2.02 (≈ 1.2 µg/mL) | 200 (≈ 119 µg/mL) | 18.72 | 6.51 |

Continued, in another order:

| half-life at 1 μM [1] [min] | Ki (CDK4) [nM] | Ki (CDK6) [nM] | Papp A→B at 2 h, 2 μM [2] [×10⁻⁶ cm/s] | IC50 at 10 min [3] [µM] | IC50 [4] [nM] | IC50 [5] [nM] | solubility kinetic at 24 h [6, 7] [µM] | solubility kinetic at 24 h [6, 8] [µM] | Compound | hERG (hERG potassium channels) [%] | Ther Window [4] |
| --- | --- | --- | --- | --- | --- | --- | --- | --- | --- | --- | --- |
| 71.2 | 1.21 | 6.57 | 0.06 | 25.8 | 80 | 900 | 107 (≈ 61.9 µg/mL) | 200 (≈ 116 µg/mL) | Cc1nc2c(F)cc(-c3nc(Nc4ccc(CN5CCO[C@](C)(C[C@H](C)N(C)C)C5)cn4)ncc3F)cc2n1C(C)C [Compound A27] | 24.78 | 11.50 |
| 55.2 | 0.46 | 2.6 | 0.09 | 94 | 70 | 390 | 15.8 | 200 | Cc1nc2c(F)cc(-c3nc(Nc4ccc(CN5CCO[C@@](C)(C[C@@H](C)N(C)C)C5)cn4)ncc3F)cc2n1C(C)C [Compound A28, N-(5-(((S)-2-((R)-2-(dimethylamino)propyl)-2-methylmorpholino)methyl)pyridin-2-yl)-5-fluoro-4-(4-fluoro-1-isopropyl-2-methyl-1H-benzo[d]imidazol-6-yl)pyrimidin-2-amine methanesulfonate] | 6.78 | 5.23 |
| 30.8 | 1.91 | 10.8 | 0.59 | 23.4 | 250 | 910 | 3.28 (≈ 1.89 µg/mL) | 200 (≈ 115 µg/mL) | CC(=O)N1CC[C@@]2(CN(Cc3ccc(Nc4ncc(F)c(-c5cc(F)c6nc(C)n(C(C)C)c6c5)n4)nc3)CCO2)C1 [Compound A36] | 21.60 | 3.57 |
